Source: patent US20250057960A1, “OLIGOSACCHARIDE COMPLEXES AND USES” (BioNTech SE, priority 2021, published 2025)

Assays:
[1] = system: human PBMCs; experiment: Pro-inflammatory cytokine secretion in human PBMCs with alternative TLR inhibitors (Example 14); type: cell-based; details: in JLF218+Tween40+TL2-C29 (1:0.5:0.5) modRNA formulation, N/P6; 24 hours after transfection
Description: The present example evaluated the impact of different TLR inhibitors. Pro-inflamatory cytokine secretion in human PBMCs was evaluated for two different oligosaccharide formulations (JLF218 and JLF244) in combination with either TAK-242 or TL2-C29. Six formulations were tested, as illustrated in table below: […]
All formulations were complexed with modRNA (coding for firefly luciferase) formulated at N/P6. Formulations were complexed in MBG Buffer (final concentration 5% w/v Glucose, 10 mM MES, pH 6.1), at RNA final concentration of 0.15 mg/mL and the mixing ratio of the RNA containing solution and the oligosccharide+Tween40 (+TAK-242 or TL2-C29 as indicated) containing solution was 9:1 (v:v) for all the cases.
IL-6, TNFα, IL1b, IFNg, MIP1b, IP10 and MCP1 secretion was evaluated 24 hours after transfection of 1e^6 human PMBCs in supernatant using the MSD Kit Standard Protocol. Cell viability was evaluated using a XTT Standard Assay. In the following figures, C29 refers to TL2-C29. FIG. 12A is a plot illustrating IL-6 secretion of human PBMCs (hPMBCs) for different doses of tested formulations. FIG. 12B is a plot illustrating TNFa secretion of hPBMCs for different doses of tested formulations. FIG. 12C is a plot illustrating IL1b secretion of hPBMCs for different doses of tested formulations. […]

[2] = system: hPBMCs; experiment: Secretion of pro-inflammatory cytokines and chemokines in hPBMCs after transfection with modRNA formulations (Example 10); type: cell-based, human; details: incorporated into cationic oligosaccharide (JLF218)+Tween40 modRNA complex, 1:0.5:0.5 molar ratio, N/P6; 24 hours after transfection; FIGS. 10A to 10D
Excerpt: The present example provides complexes comprising a third component which can inhibit the immune response against the expressed protein from the delivered RNA, avoiding pro-inflammatory signals that can hamper the therapeutic effect of RNA-therapy. In the present experiment, a TLR4 inhibitor molecule, TAK-242, was used alone or together with a wide spectrum immunosuppressor, dexamethasone, in combination with cationic oligosaccharides described herein+Tween40 to formulate modRNA encoding for luciferase.
In the first part of the experiment, secretion of pro-inflammatory cytokines in hPBMCs was evaluated for two different cationic oligosaccharides: JLF218 and PRX093, whereas different combinations including TAK-242 and/or Dexamethasone are tested. […] IL-6, TNF-α, IL-1β, IFN-γ, MIP-1β, IP-10 and MCP-1 secretion after 24 hours of transfection of 5×105 hPMBCs was evaluated in the supernatants using MSD Kit Standard Protocol. Primary human hepatocytes were transfected with a dose variation between 0.01-1 μg of modRNA and luciferase expression is evaluated over the course of 6 days.
FIG. 10A is a scatter plot illustrating quantified IL-6 secretion in hPBMCs upon exposure to different doses of tested formulations. FIG. 10B is a scatter plot illustrating quantified TNF-α secretion in hPBMCs upon exposure to different doses of tested formulations. […]

Row | Structure (SMILES) | secretion of pro-inflammatory cytokines [1] | secretion of pro-inflammatory cytokines (IL-6, TNF-α, IL-1β, IFN-γ) [2]
1 | COc1cccc(/C=N/c2cccc(C(=O)O)c2C)c1O [TL2-C29] | able to inhibit | 
2 | CCOC(=O)C1=CCCC[C@H]1S(=O)(=O)Nc1ccc(F)cc1Cl [TAK-242] |  | reduction of pro-inflammatory cytokines
